US9399631B2, “Polyphenol proteasome inhibitors, synthesis, and methods of use” (UNIVERSITY OF SOUTH FLORIDA, priority 2003, dated 2016)
pIC50: −log10 of the molar value.

Key:
[1] = molecular target: T1, 20S eukaryotic proteasome (Oryctolagus cuniculus, UniProt G1T4Q9); experiment: Inhibition of chymotrypsin-like activity of purified eukaryotic 20S proteasome (Suc-Leu-Leu-Val-Tyr-AMC); type: biochemical, rabbit; conditions: for pIC50: chymotrypsin-like activity, rabbit 20S proteasome
T1 construct: purchased BOSTON BIOCHEM (Cambridge, Mass.)
T1 sequence (G1T4Q9 1-263): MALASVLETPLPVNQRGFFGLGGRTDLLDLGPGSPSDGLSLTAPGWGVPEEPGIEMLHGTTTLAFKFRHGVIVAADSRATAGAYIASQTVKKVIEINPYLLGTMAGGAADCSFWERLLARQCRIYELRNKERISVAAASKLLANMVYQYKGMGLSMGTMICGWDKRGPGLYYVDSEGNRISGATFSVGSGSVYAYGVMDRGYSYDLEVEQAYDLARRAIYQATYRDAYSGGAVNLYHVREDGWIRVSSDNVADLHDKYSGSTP
In short: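 Purified rabbit 20S proteasome (0.02 μg) incubated with 20 μM Suc-LLVY-AMC for 30 min at 37° C in Tris-HCl pH 7.5, with or without compound. Chymotrypsin-like activity read as released AMC fluorescence (Ex 380 or 355 nm/Em 460 nm).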

VA-13 cells = experiment: Western blot of p27 in SV40-transformed VA-13 fibroblasts; type: cell-based, human; conditions: 25 μM
Procedure: Cell Culture, Cell Extract Preparation, and Western Blot Assay. Human leukemia Jurkat T and prostate cancer LNCaP cells were cultured in RPMI 1640 medium supplemented with 10% fetal calf serum, 100 units/ml of penicillin, and 100 μg/ml streptomycin. Human immortalized, non-transformed NK cells (YT cell line) (38) were cultured in RPMI 1640 supplemented with 1 mM MEM sodium pyruvate solution, 0.1 mM MEM non-essential amino acids solution, 10% fetal calf serum. 100 units/ml penicillin, and 100 μg/ml streptomycin. Normal (WI-38) and simian virus 40 (SV40)-transformed (VA-13) human fibroblasts were grown in Dulbecco's modified Eagle's medium supplemented with 10% fetal calf serum, 100 units/ml of penicillin and 100 μg/ml of streptomycin. All cells were maintained at 37° C. in a humidified incubator with an atmosphere of 5% CO2. A whole cell extract was prepared in accordance with An et al. (An, B. et al. Cell Death Differ, 1998, 5:1062-75). Briefly, cells were harvested, washed with PBS twice, and homogenized in a lysis buffer [50 mM Tris-HCl (pH 8.0), 5 mM EDTA, 150 mM NaCl, 0.5% NP-40, 0.5 mM phenylmethylsulfonyl fluoride, and 0.5 mM dithiothreitol] for 30 min at 4° C. Afterwards, lysates were centrifuged at 12,000×g for 15 min at 4° C., and the supernatants were collected as whole cell extracts. Equal amounts of protein extract (60 μg) were resolved by SDS-polyacrylamide gel electrophoresis and transferred to a nitrocellulose membrane using a Semi-Dry Transfer system (BIO-RAD, Hercules, Calif.). Jurkat T, LNCaP, or DU-145 cells were treated with various concentrations of synthetic or natural tea polyphenols for indicted hours. The enhanced chemiluminescence (ECL) Western blot analysis was then performed using specific antibodies to the proteins of interest (p^27kip, IκB-α, PARP, Bax or actin). The ratio of p27 or IκB-α to the corresponding actin was determined by scanning intensities of the protein bands.
Normal WI-38 and SV40-transformed VA-13 cell lines were treated with 25 μM of (−)-EGCG, (−)-EGCG-amide, (+)-EGCG, (+)-EGCG-amide, or GTP-1 for either 12 hours or 36 hours.

| SMILES | pIC50 [1] | levels of p27 protein (VA-13 cells; 12 hours) | reversal of proteasome inhibition by SDS ([1]; 1 μM, 0.01% SDS added after 1 hour (SDS-post)) | inhibition of chymotrypsin-like activity ([1]; 1 μM, 5 min) | inhibition of chymotrypsin-like activity ([1]; 1 μM, 30 min) | inhibition of chymotrypsin-like activity ([1]; 1 μM, after 1 to 3 hours) | inhibition of chymotrypsin-like activity ([1]; 1 μM, no SDS) | inhibition of chymotrypsin-like activity ([1]; 1 μM, pre-incubation with 0.01% SDS for 1 hour (SDS-pre)) | levels of p27 protein (VA-13 cells; 36 hours) |
| --- | --- | --- | --- | --- | --- | --- | --- | --- | --- |
| O=C(OC1Cc2c(O)cc(O)cc2OC1c1cc(O)c(O)c(O)c1)c1cc(O)c(O)c(O)c1 (single isomer, unassigned; (+)) [(+)-EGCG] | 6.77 | significantly increased levels of p27 protein |  |  |  |  |  |  |  |
| O=C(OC1Cc2c(O)cc(O)cc2OC1c1cc(O)c(O)c(O)c1)c1cc(O)c(O)c(O)c1 (single isomer, unassigned; (+)) [(+)-GCG] | 6.57 |  |  |  |  |  |  |  |  |
| O=C(O[C@@H]1Cc2c(O)cc(O)cc2O[C@@H]1c1cc(O)c(O)c(O)c1)c1cc(O)c(O)c(O)c1 [(−)-EGCG, (−)-epigallocatechin-3-gallate, reference compound] | 6.69 | significantly increased levels of p27 protein | could not reverse the EGCG-mediated proteasome inhibition | 35% | 62% | 70-80% | up to 75% | 10-20% | accumulated p27 levels |
| O=C(N[C@@H]1Cc2c(O)cc(O)cc2O[C@@H]1c1cc(O)c(O)c(O)c1)c1cc(O)c(O)c(O)c1 [(−)-EGCG-amide, (−)-[2R,3R]-N-[5,7-Dihydroxy-2-(3,4,5-trihydroxyphenyl)-chroman-3-yl]-3,4,5-trihydroxybenzamide] | 6.49 | significantly increased levels of p27 protein |  |  |  |  |  |  |  |
